{"source": "ChEMBL document CHEMBL3853266", "about": "“A complex game of hide and seek: the search for new antifungals” (Medchemcomm, 2016)", "assay": "Antifungal activity against Candida albicans clinical isolate by serial twofold dilution microtitre plate method", "type": "functional", "data": [{"smiles": "COc1ccc2oc(=O)sc2c1C(=O)/C=C/c1ccc(OCCCN(C)C)cc1", "values": [{"measurement": "MIC", "value": 1, "unit": "µg/mL"}]}]}
